Laboratory results reported in the CheMixHub drug solubility set.

Experiment: xn = mol fraction of the nth substance listed, in the solute-free solvent

CC(S)C(=O)NCC(=O)O (stereo not given) + CC(C)CO + CC#N
solubility (g/100 g solution)
Conditions | 273.15 K | 278.15 K | 283.15 K | 288.15 K | 293.15 K | 298.15 K | 303.15 K | 308.15 K | 313.15 K | 318.15 K
x2 = 0.1216 | 3.99 | 4.43 | 4.93 | 5.48 | 6.05 | 6.7 | 7.36 | 8.06 | 8.81 | 9.64
x2 = 0.2697 | 4.62 | 5.31 | 6.02 | 6.81 | 7.59 | 8.41 | 9.25 | 10.1 | 11.2 | 12.4
x2 = 0.4538 | 7.02 | 7.59 | 8.23 | 8.89 | 9.58 | 10.4 | 11.1 | 12 | 13 | 13.9
x2 = 0.689 | 4.17 | 4.7 | 5.22 | 5.84 | 6.48 | 7.14 | 7.88 | 8.69 | 9.56 | 10.5

CC(S)C(=O)NCC(=O)O (stereo not given) + CC(C)CO + Cc1ccccc1
solubility (g/100 g solution)
Conditions | 273.15 K | 278.15 K | 283.15 K | 288.15 K | 293.15 K | 298.15 K | 303.15 K | 308.15 K | 313.15 K | 318.15 K
x2 = 0.2371 | 0.622 | 0.677 | 0.744 | 0.819 | 0.9 | 0.989 | 1.09 | 1.21 | 1.34 | 1.48
x2 = 0.4531 | 1.14 | 1.3 | 1.45 | 1.64 | 1.87 | 2.12 | 2.37 | 2.63 | 2.92 | 3.35
x2 = 0.6509 | 1.71 | 1.98 | 2.28 | 2.67 | 3.04 | 3.56 | 4.09 | 4.71 | 5.39 | 6.3
x2 = 0.8325 | 2.92 | 3.45 | 4.01 | 4.57 | 5.19 | 5.87 | 6.57 | 7.38 | 8.31 | 9.34

CCOc1ccccc1C(N)=O + CC(C)O + CC#N
293.15 K
Conditions | solubility (g/100 g solution)
x2 = 0.1 | 3.74
x2 = 0.2 | 4.36
x2 = 0.3 | 4.92
x2 = 0.4 | 5.26
x2 = 0.5 | 5.44
x2 = 0.6 | 5.14
x2 = 0.7 | 4.81
x2 = 0.8 | 4.2
x2 = 0.9 | 3.48

c1ccc(-c2ccc(C(c3ccccc3)n3ccnc3)cc2)cc1 (stereo not given) + CC(C)O + O
solubility (g/100 g solution)
Conditions | 278.15 K | 283.15 K | 288.15 K | 293.15 K | 298.15 K | 303.15 K | 308.15 K | 313.15 K | 318.15 K
x2 = 0.03225 | 0.0342 | 0.0473 | 0.0644 | 0.0851 | 0.103 | 0.142 | 0.189 | 0.234 | 0.294
x2 = 0.06974 | 0.0839 | 0.115 | 0.155 | 0.204 | 0.247 | 0.338 | 0.444 | 0.549 | 0.687
x2 = 0.1139 | 0.17 | 0.232 | 0.31 | 0.408 | 0.497 | 0.673 | 0.876 | 1.09 | 1.35
x2 = 0.1666 | 0.29 | 0.394 | 0.525 | 0.692 | 0.849 | 1.14 | 1.48 | 1.84 | 2.29
x2 = 0.2307 | 0.426 | 0.578 | 0.767 | 1.05 | 1.37 | 1.77 | 2.24 | 2.81 | 3.38
x2 = 0.3103 | 0.547 | 0.744 | 0.987 | 1.32 | 1.65 | 2.2 | 2.83 | 3.56 | 4.43
x2 = 0.4117 | 0.629 | 0.928 | 1.26 | 1.69 | 2.19 | 2.73 | 3.34 | 4.23 | 5.29
x2 = 0.5454 | 0.662 | 0.935 | 1.36 | 1.8 | 2.39 | 2.97 | 3.63 | 4.64 | 5.84
x2 = 0.7297 | 0.651 | 0.899 | 1.25 | 1.75 | 2.25 | 2.98 | 3.86 | 4.96 | 6.12
